ChEMBL document CHEMBL1144455, “A small molecule-kinase interaction map for clinical kinase inhibitors” (Nat Biotechnol, 2005)

How the values were obtained:
[1] = target: T1, Serine/threonine-protein kinase 3 (Mus musculus, UniProt Q9JI10)
T1 sequence (Q9JI10 whole entry): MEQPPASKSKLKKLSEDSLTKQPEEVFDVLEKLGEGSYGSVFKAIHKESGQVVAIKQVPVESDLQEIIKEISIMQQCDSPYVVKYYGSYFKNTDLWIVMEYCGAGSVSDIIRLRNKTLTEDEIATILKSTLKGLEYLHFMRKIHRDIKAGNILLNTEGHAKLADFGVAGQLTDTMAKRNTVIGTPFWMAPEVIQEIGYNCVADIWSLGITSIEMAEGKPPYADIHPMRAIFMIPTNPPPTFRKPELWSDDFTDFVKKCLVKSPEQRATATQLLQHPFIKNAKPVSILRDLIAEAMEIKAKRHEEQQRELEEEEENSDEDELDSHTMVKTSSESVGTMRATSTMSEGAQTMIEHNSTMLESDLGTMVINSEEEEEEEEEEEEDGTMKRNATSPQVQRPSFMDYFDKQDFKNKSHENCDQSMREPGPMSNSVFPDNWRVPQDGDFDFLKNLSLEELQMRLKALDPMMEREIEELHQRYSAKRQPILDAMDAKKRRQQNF

[2] = target: T2, Mitogen-activated protein kinase 12 (Homo sapiens, UniProt P53778)
T2 sequence (P53778 whole entry): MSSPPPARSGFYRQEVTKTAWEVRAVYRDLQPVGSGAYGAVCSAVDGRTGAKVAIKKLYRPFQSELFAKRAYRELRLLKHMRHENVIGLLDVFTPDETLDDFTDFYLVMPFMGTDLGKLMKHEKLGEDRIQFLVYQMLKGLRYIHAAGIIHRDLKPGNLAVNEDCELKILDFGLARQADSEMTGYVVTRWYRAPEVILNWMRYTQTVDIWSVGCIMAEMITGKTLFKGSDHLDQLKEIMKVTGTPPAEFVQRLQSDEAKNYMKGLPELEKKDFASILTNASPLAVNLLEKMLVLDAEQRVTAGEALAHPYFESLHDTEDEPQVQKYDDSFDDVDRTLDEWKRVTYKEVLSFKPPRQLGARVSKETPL

[3] = target: Calcium/calmodulin-dependent protein kinase type 1 (Homo sapiens, UniProt Q14012)
[4] = target: Serine/threonine-protein kinase pim-1 (Homo sapiens, UniProt P11309)
[5] = target: Tyrosine-protein kinase Lyn (Homo sapiens, UniProt P07948)
Chain of Tyrosine-protein kinase Lyn (P07948 whole entry): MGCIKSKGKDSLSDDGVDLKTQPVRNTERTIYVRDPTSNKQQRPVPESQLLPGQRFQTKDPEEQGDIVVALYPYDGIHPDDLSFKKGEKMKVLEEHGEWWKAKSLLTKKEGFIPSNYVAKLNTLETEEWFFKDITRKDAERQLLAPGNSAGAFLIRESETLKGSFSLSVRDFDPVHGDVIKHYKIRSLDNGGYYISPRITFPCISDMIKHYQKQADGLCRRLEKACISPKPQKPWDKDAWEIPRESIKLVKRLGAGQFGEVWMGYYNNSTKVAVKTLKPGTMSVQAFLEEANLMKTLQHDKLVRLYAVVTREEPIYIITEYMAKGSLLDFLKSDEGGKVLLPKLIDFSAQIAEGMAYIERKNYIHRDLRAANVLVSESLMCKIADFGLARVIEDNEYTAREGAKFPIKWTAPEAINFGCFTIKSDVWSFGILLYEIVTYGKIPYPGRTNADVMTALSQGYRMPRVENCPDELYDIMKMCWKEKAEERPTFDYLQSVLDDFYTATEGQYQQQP

[6] = target: Tyrosine-protein kinase Fgr (Homo sapiens, UniProt P09769)
Chain of Tyrosine-protein kinase Fgr (P09769 whole entry): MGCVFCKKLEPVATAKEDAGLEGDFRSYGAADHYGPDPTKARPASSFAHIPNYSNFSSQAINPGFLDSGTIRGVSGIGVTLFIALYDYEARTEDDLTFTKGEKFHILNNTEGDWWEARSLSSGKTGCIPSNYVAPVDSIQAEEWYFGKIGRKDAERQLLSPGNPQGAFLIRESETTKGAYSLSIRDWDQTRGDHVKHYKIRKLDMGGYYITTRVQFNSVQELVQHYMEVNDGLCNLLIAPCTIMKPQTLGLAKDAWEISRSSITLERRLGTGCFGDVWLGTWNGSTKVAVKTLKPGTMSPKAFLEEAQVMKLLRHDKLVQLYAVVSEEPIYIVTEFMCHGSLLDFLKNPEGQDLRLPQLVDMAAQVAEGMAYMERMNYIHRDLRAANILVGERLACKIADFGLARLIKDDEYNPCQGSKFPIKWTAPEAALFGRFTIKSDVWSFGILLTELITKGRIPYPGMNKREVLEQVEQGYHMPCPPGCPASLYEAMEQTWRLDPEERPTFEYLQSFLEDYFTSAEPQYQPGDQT

[7] = target: Protein kinase C alpha type (Homo sapiens, UniProt P17252)
[8] = target: Fibroblast growth factor receptor 3 (Homo sapiens, UniProt P22607)
[9] = target: Serine/threonine-protein kinase 16 (Homo sapiens, UniProt O75716)
Chain of Serine/threonine-protein kinase 16 (O75716 whole entry): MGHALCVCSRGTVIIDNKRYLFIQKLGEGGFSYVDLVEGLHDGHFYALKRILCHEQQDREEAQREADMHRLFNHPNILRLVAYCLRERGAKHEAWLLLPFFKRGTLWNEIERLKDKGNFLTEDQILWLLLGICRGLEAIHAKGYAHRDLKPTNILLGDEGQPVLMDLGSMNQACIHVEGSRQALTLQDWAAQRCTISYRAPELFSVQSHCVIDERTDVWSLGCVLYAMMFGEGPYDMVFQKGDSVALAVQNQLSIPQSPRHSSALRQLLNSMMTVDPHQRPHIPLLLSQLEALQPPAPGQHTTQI

[10] = target: Tyrosine-protein kinase JAK2 (Homo sapiens, UniProt O60674)
[11] = target: BMP-2-inducible protein kinase (Homo sapiens, UniProt Q9NSY1)
Chain of BMP-2-inducible protein kinase (Q9NSY1 whole entry): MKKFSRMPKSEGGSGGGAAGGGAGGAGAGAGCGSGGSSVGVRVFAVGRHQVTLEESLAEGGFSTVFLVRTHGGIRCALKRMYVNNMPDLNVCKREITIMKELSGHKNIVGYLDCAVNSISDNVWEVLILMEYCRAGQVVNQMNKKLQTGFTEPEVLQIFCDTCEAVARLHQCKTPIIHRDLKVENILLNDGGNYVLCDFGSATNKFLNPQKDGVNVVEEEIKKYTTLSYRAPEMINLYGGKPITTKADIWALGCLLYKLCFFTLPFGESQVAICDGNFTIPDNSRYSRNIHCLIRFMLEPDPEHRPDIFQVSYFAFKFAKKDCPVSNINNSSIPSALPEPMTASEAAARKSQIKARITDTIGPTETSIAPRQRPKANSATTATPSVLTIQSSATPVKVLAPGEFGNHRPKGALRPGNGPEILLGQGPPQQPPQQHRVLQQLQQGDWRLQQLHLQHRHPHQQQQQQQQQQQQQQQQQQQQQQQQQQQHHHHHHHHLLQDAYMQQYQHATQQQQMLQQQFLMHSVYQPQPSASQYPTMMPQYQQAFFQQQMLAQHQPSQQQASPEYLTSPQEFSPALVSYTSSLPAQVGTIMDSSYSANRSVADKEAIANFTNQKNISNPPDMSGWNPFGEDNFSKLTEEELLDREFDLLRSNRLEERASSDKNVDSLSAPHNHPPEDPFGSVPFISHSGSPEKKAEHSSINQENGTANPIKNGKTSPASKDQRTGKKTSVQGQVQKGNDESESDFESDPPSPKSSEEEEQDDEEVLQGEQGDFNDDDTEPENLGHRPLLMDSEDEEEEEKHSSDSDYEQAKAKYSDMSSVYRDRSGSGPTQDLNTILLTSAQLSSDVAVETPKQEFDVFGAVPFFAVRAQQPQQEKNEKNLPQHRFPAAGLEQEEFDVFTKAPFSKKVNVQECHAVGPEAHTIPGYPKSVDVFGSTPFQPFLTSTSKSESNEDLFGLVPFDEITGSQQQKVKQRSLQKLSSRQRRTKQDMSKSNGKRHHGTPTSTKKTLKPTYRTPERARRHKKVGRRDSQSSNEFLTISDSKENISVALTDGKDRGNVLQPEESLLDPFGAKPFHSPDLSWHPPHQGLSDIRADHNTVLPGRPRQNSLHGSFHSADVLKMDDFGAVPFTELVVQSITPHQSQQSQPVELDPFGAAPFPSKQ

[12] = target: Calcium/calmodulin-dependent protein kinase type II subunit gamma (Homo sapiens, UniProt Q13555)
Activated CDC42 kinase 1 = Activated CDC42 kinase 1 (Homo sapiens, UniProt Q07912)
[13] = target: Phosphorylase b kinase gamma catalytic chain, skeletal muscle/heart isoform (Homo sapiens, UniProt Q16816)
Chain of Phosphorylase b kinase gamma catalytic chain, skeletal muscle/heart isoform (Q16816 whole entry, canonical isoform): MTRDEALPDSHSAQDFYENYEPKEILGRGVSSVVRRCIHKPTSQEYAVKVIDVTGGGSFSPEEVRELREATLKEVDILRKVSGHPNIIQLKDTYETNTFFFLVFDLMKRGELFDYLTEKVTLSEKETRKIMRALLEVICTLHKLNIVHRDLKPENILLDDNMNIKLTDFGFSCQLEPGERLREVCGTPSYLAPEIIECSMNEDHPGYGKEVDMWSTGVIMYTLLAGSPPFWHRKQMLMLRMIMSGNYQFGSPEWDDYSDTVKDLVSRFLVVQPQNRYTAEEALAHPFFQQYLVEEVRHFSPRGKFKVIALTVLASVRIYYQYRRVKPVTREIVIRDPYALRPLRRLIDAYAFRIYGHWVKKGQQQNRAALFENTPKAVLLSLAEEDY

[14] = target: 5'-AMP-activated protein kinase catalytic subunit alpha-1 (Homo sapiens, UniProt Q13131)
[15] = target: MAP kinase-interacting serine/threonine-protein kinase 2 (Homo sapiens, UniProt Q9HBH9)
[16] = target: T3, Serine/threonine-protein kinase PLK4 (Homo sapiens, UniProt O00444)
T3 sequence (O00444 whole entry): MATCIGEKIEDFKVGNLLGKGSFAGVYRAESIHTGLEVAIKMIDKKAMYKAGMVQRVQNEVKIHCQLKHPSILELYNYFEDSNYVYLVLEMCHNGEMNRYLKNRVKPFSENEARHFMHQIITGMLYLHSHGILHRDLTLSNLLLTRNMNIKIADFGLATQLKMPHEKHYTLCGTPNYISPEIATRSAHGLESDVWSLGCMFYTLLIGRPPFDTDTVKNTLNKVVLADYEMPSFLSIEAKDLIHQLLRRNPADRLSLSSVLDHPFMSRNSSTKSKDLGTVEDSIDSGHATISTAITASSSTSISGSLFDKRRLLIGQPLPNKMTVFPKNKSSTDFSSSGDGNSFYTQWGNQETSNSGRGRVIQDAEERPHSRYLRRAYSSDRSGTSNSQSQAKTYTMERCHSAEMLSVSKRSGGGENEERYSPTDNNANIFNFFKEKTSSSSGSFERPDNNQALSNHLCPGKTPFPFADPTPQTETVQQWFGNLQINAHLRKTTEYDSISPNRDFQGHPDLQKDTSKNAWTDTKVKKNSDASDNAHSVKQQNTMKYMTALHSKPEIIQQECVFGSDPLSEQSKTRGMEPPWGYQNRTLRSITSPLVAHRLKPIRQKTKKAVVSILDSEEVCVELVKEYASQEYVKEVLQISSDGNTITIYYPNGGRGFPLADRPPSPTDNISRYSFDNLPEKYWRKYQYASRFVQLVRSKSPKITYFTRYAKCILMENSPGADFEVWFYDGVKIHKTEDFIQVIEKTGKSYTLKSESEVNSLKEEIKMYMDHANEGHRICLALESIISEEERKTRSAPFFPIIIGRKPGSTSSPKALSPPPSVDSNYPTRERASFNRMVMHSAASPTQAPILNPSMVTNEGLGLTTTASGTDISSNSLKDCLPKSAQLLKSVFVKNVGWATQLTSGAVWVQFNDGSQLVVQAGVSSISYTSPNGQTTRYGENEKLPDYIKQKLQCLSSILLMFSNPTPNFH

[17] = target: Tyrosine-protein kinase ABL1 (Homo sapiens, UniProt P00519, T315I)
[18] = target: Calcium/calmodulin-dependent protein kinase type II subunit alpha (Homo sapiens, UniProt Q9UQM7)
[19] = target: Receptor tyrosine-protein kinase erbB-2 (Homo sapiens, UniProt P04626)
Chain of Receptor tyrosine-protein kinase erbB-2 (P04626 whole entry): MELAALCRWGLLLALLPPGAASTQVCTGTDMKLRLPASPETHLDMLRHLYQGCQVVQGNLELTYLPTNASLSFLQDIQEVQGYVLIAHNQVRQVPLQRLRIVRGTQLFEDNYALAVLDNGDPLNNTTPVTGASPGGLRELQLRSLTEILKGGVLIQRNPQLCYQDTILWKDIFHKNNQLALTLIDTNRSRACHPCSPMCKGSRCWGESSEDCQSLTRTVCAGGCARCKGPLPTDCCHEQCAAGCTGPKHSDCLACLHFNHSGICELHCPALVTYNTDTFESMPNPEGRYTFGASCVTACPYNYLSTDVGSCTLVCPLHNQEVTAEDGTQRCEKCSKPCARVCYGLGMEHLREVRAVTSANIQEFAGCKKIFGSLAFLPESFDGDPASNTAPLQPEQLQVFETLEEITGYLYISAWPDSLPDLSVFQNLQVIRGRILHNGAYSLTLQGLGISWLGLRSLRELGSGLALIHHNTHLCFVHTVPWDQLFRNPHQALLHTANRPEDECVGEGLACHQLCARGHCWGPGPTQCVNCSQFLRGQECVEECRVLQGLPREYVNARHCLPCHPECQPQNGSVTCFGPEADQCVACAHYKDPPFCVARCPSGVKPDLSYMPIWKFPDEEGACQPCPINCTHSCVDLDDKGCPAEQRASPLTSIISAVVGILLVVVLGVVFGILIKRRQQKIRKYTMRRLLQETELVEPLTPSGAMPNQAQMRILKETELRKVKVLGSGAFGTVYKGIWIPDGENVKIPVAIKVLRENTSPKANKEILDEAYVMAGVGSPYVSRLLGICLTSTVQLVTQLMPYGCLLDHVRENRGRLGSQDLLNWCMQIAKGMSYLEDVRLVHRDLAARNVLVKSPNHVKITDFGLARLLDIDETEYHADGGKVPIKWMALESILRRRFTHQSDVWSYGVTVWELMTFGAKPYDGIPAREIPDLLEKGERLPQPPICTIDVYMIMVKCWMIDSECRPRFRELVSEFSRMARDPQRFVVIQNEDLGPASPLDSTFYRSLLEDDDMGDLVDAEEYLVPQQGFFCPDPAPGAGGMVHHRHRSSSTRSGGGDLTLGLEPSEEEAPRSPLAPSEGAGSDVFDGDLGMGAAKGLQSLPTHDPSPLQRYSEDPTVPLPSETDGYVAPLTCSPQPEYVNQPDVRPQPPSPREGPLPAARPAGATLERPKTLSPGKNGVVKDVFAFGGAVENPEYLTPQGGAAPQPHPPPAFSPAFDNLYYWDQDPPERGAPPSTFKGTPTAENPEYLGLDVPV

[20] = target: High affinity nerve growth factor receptor (Homo sapiens, UniProt P04629)

Measured: Kd

COc1cc2c(N3CCN(C(=O)Nc4ccc(OC(C)C)cc4)CC3)ncnc2cc1OCCCN1CCCCC1 [TANDUTINIB]
not listed: [20]
Not Active: all other assays above

Oc1ccc(-c2nc(-c3ccc(F)cc3)c(-c3ccncc3)[nH]2)cc1 [SB-202190]
not listed: [2]
Not Active: all other assays above

C[S+]([O-])c1ccc(-c2nc(-c3ccc(F)cc3)c(-c3ccncc3)[nH]2)cc1 (stereo not drawn) [SB-203580]
not listed: [2]
Not Active: all other assays above

CCOc1cc2ncc(C#N)c(Nc3ccc(F)c(Cl)c3)c2cc1NC(=O)/C=C/CN(C)C [PELITINIB]
not listed: [1] | [5] | [10] | [11] | Activated CDC42 kinase 1 | [13] | [17] | [19]
Not Active: all other assays above

Cc1ccc(NC(=O)c2ccc(CN3CCN(C)CC3)cc2)cc1Nc1nccc(-c2cccnc2)n1 [IMATINIB]
not listed: [16] | [17]
Not Active: all other assays above

O=c1ncn2nc(Sc3ccc(F)cc3F)ccc2c1-c1c(Cl)cccc1Cl [NEFLAMAPIMOD]
not listed: [6]
Not Active: all other assays above

Oc1c2ccccc2c2c3c(cccc13)N=N2 [SP-600125]
not listed: [1] | [2] | [3] | [9] | [11] | [15] | [16]
Not Active: all other assays above

C#Cc1cccc(Nc2ncnc3cc(OCCOC)c(OCCOC)cc23)c1 [ERLOTINIB]
not listed: [11] | [15] | [17] | [19]
Not Active: all other assays above
